How the values were obtained:
[1] = tested on: Hepatitis B virus; test: Antiviral activity against hepatitis B virus infected in human MS-G2 cells assessed as inhibition of surface antigen production at 10 uM after 48 hrs; assay type: functional; settings: MS-G2, 48 h
[2] = tested on: Hepatitis B virus; test: Antiviral activity against hepatitis B virus infected in human MS-G2 cells assessed as inhibition of e-antigen production at 100 uM after 48 hrs; assay type: functional; settings: MS-G2, 48 h
[3] = tested on: Hepatitis B virus; test: Antiviral activity against hepatitis B virus infected in human MS-G2 cells assessed as inhibition of e-antigen production at 50 uM after 48 hrs; assay type: functional; settings: MS-G2, 48 h
[4] = tested on: Hepatitis B virus; test: Antiviral activity against hepatitis B virus infected in human MS-G2 cells assessed as inhibition of e-antigen production at 10 uM after 48 hrs; assay type: functional; settings: MS-G2, 48 h
[5] = Cytotoxicity against human MS-G2 cells at 100 uM by MTT assay; assay type: cell-based; settings: read-out: INH
[6] = Cytotoxicity against human MS-G2 cells at 50 uM by MTT assay; assay type: cell-based; settings: read-out: INH
[7] = Cytotoxicity against human MS-G2 cells at 10 uM by MTT assay; assay type: cell-based; settings: read-out: INH
[8] = tested on: Hepatitis B virus; test: Antiviral activity against hepatitis B virus infected in human MS-G2 cells assessed as inhibition of surface antigen production at 100 uM after 48 hrs; assay type: functional; settings: MS-G2, 48 h
[9] = tested on: Hepatitis B virus; test: Antiviral activity against hepatitis B virus infected in human MS-G2 cells assessed as inhibition of surface antigen production at 50 uM after 48 hrs; assay type: functional; settings: MS-G2, 48 h

SMILES	inhibition at 10 µM [1] [%]	inhibition at 100 µM [2] [%]	inhibition at 50 µM [3] [%]	inhibition at 10 µM [4] [%]	cytotoxicity at 100 µM [5] [%]	cytotoxicity at 50 µM [6] [%]	cytotoxicity at 10 µM [7] [%]	inhibition at 100 µM [8] [%]	inhibition at 50 µM [9] [%]
C/C(=C/COc1c2occc2cc2ccc(=O)oc12)C(=O)O	13.2	12.5	1.6	0.7	14.7	18.4	11.7	27	12.3
C/C(=C\COc1c2occc2cc2ccc(=O)oc12)CO	20.9	29	16.5	8	10.3	3.4	13	61.3	37.4
CC(C)=CCOc1c2occc2cc2ccc(=O)oc12 [PENTOSALEN]	14.9	34.3	22.5	3.8	-8.7	8.9	11	68.4	55.3
O=c1ccc2cc3ccoc3c(O)c2o1 [XANTHOTOXOL]	5.2	0.7	2.7	-5	17	12.2	7.8	19.8	10.5
C/C(=C/COc1c2occc2cc2ccc(=O)oc12)CO [Z-trichoclin]	13.6	12.4	11.9	8.2	12.6	15	18	45.2	34.6

Source: ChEMBL document CHEMBL1151233, “Biotransformation of imperatorin by Aspergillus flavus” (J Nat Prod, 2004)
